Paper PMC6212778, “Site-specific amino acid substitution in dodecameric peptides determines the stability and unfolding of c-MYC quadruplex promoting apoptosis in cancer cells” (Nucleic Acids Research, 2018)

Legend:
[1] = tested on: Sp1 at c-MYC-NHE III1 in MCF-7 cells; assay: ChIP, Sp1 occupancy at c-MYC-NHE III1; format: cell-based, human; details: MCF-7, 24 h, ChIP-qPCR versus IgG control
Method: Chromatin immunoprecipitation studies are conducted to monitor the promoter occupancies of different transcription factors (Sp1, NM23-H2 and Nucleolin) and RNA polymerase II (RNAPII) on the region encompassing c-MYC-NHE III1 ([69]). We have grown MCF-7 cells in 10-cm^2 culture flask at a density of 1 × 10^6 cells per well and treated with the synthetic peptides (FK13, KR12A, KR12B, and KR12C) for 24 hours. Cells are cross-linked with 1% formaldehyde at room temperature for 10 min and the reaction is stopped by 0.125 M glycine at room temperature for 10 min. Fixed cells are lysed and sonicated to yield DNA fragments of 200–500 bp. ChIP-grade antibodies (NM23-H2 (L-15) Antibody (sc-14790, Santa Cruz), and Anti-Nucleolin antibody [4E2]-ChIP Grade (Abcam)), Anti Sp1 antibody (Sigma), and Rpb1 (RNAPII subunit b1) CTD (C-terminal domain) 4H8 antibody are added to the sonicated chromatin and incubated overnight at 4°C. Then, 10 μl protein A magnetic beads (Dynal, Invitrogen), previously washed in RIPA buffer are added to the samples and bead–protein complexes are washed thrice with RIPA buffer and twice with TE buffer. The genomic DNA is eluted for 2 h at 68°C in complete elution Buffer (20 mM Tris, pH 7.5, 5 mM EDTA, 50 mM NaCl, 1% SDS and 50 μg/ml proteinase K) and further combined with the DNA eluted from second elution for 10 min at 68°C in 100 μl of elution buffer (20 mM Tris, pH 7.5, 5 mM EDTA and 50 mM NaCl). ChIP-isolated DNA is purified using MinElute Purification kit (Qiagen) and is amplified by PCR (Polymerase Chain Reaction) reactions using forward and reverse primers ([70]) (Supplementary Table S4) specific to the quadruplex-enriched regions at c-MYC promoter and Phusion® High-Fidelity PCR Kit (NEB). Anti-rabbit IgG is employed for mock immunoprecipitation (Negative control).

[2] = tested on: BCL-2, VEGF-A, KRAS transcripts in MCF-7 cells; assay: Real time PCR of other oncogene transcripts; format: cell-based, human; details: MCF-7, 24 h, qPCR
Method: (§1) To inspect the transcription inhibitory roles of peptides in c-MYC, BCL-2, VEGF-A and KRAS oncogenes having putative quadruplexes in their promoters, we performed real time polymerase chain reactions. MCF-7 cells are sub-cultured into 6-well microtiter plates at a density of 1 × 10^6 cells per well and treated with different concentrations of peptides (FK13, KR12A, KR12B and KR12C) for 24 hours. Total RNA is isolated from both untreated and treated cells using TRIzol method (Invitrogen) as per manufacturer's instructions. 2 μg of total RNA is processed for cDNA synthesis and reverse transcribed using a Super MuLV RT Kit (Biobharati Life Sciences Pvt. Ltd.). Real time PCR is performed using Maxima SYBR Green/ROX qPCR Master Mix (2×) (Thermo-Scientific) as per manufacturer's protocol. Housekeeping gene, GAPDH is used as an internal control to normalize the variability in c-MYC mRNA expression levels (Supplementary information Section 1). PCR primers are designed using Primer-BLAST, NCBI, and analyzed in OligoAnalyser 3.1-IDT (Supplementary Table S2).

[3] = tested on: c-MYC promoter (Pu27-GQ) in MCF-7 cells; assay: Dual-luciferase assay, c-MYC promoter with Pu27-GQ; format: cell-based, human; details: for c-MYC promoter activity, fold repression: MCF-7, 24 h peptide treatment, 60 μM, Renilla/firefly normalised; for c-MYC promoter activity: MCF-7, 24 h, peptide 0–60 μM
Method: (§2) MCF-7 cells are sub-cultured into 24-well microtiter plates at a cell density of 1 × 10^5 cells/well. Reporter constructs (c-MYC, BCL-2, KRAS and VEGF-A) (500 ng) with and/or without the G-quadruplex scaffolds triggering the expression of Renilla luciferase are co-transfected with 50 ng of pGL3-control vectors (Promega) (used as internal control), encoding firefly luciferase into MCF-7 cells using Lipofectamine® 3000 transfection reagent (Thermo-Fisher Scientific) following manufacturer's recommendations (Supplementary information Section 1). Twenty four hours post-transfection, cells are treated with peptides (FK13, KR12A, KR12B, KR12C, KR12D and KR12E) at an increasing concentration gradient.
(§3) Dual-luciferase assays are performed to examine the intracellular selectivity of peptides for c-MYC quadruplex isomers (Pu27, Myc22 and Pu19) over other oncogenic quadruplexes (BCL-2, VEGF-A and KRAS) of different topologies. The role of peptide-quadruplex complex in oncogene promoter activation is investigated in contrast to the GQ-null promoter constructs into MCF-7 cells ([67]). After 24 h of peptide treatment, cells are washed and lysed into 100 μl 1× Passive lysis buffer (PLB) for 15 min at room temperature. Renilla and firefly Luciferase activities in 25 μl lysate are quantified by Dual-Luciferase® reporter assay system (Promega) as per manufacturer's recommendations. Renilla luciferase enzyme activity is normalized to that of the firefly luciferase activity and luminescence of the peptide-treated samples are normalized to the untreated ones, which yield the fold induction values for Renilla activities by different quadruplex structures in presence and absence of synthetic peptides. Luminescence of each sample is detected in GloMax® 20/20 Single-Tube Luminometer (Promega) in triplicates and averaged from three independent experiments.

[4] = tested on: c-MYC promoter with Myc22 isomer in MCF-7 cells; assay: Dual-luciferase assay, c-MYC promoter under control of Myc22; format: cell-based, human; details: MCF-7, 24 h peptide treatment
Method: as §2, §3

[5] = tested on: c-MYC transcripts in MCF-7 cells; assay: Real time PCR of c-MYC transcripts; format: cell-based, human; details: MCF-7, 24 h, qPCR normalised to GAPDH
Method: as §1

[6] = tested on: c-MYC quadruplex isomer Myc22; assay: CD melting of free and peptide-bound Myc22; format: binding, human
Method: (§4) To understand the role of peptides (FK13, KR12A, KR12B, KR12C, KR12D and KR12E) in stabilizing native and truncated isomers of c-MYC G-quadruplex, we have performed temperature-driven CD melting experiments for free and peptide-bound complexes in JASCO-J815 CD spectrometer. We have gradually titrated the peptides into 10 μM of putative quadruplexes and acquired the spectra after 5 min of peptide addition to allow complex formation and equilibration. Samples are heated from 20 to 95°C having the temperature gradient and the delay time of 2.5°C/min and 150 s respectively. Since the quadruplexes unfold at higher temperatures and revert back to their initial conformations upon renaturation, we have assumed a ‘two-state transition’ model (folded and unfolded) to analyze the melting curves and estimated the melting temperatures (Tm) by fitting the data points into sigmoidal curves (Supplementary information Section 1).

c-MYC quadruplex Pu27 = assay: CD melting of free and peptide-bound Pu27; format: binding, human
Method: as §4

[7] = tested on: KRAS promoter (KRAS-GQ) in MCF-7 cells; assay: Dual-luciferase assay, KRAS promoter with KRAS-GQ; format: cell-based, human; details: MCF-7, 24 h; for KRAS promoter activity: peptide 0–60 μM
Method: as §2, §3

[8] = 10 μM quadruplex, two-state model

| Substance | Sp1 occupancy at c-MYC-NHE III1 [1] | transcription of other oncogenes (BCL-2, VEGF-A, KRAS) [2] | c-MYC promoter activity, fold repression [3] [fold] | c-MYC promoter activation under control of Myc22 [4] | c-MYC transcription [5] | rise in the Tm of Myc22 upon peptide binding [6, 8] [°C] | rise in the Tm of Pu27 upon peptide binding (c-MYC quadruplex Pu27; [8]) [°C] | c-MYC promoter activity [3] | c-MYC promoter attrition in presence of Myc22, fold [4] [fold] | KRAS promoter activity [7] | c-MYC transcription, fold repression [5] [fold] | effect on thermal stability of Pu27 (c-MYC quadruplex Pu27) | depletion of the melting temperature of Myc22 upon peptide binding [6] [°C] | decrease of the Tm of Pu27 upon peptide binding (c-MYC quadruplex Pu27; [8]) [°C] | KRAS promoter activity, fold inhibition ([7]; at higher concentration) [fold] |
| --- | --- | --- | --- | --- | --- | --- | --- | --- | --- | --- | --- | --- | --- | --- | --- |
| N – FKRIVQRIKDFLR – C [FK13] | no role | abrogated | ~2 | attenuated | did not downregulate c-MYC transcription |  |  |  |  |  |  |  |  |  |  |
| N – KRIVKLIKKWLR – C [KR12C] | depleted |  |  |  |  | 6.91 | 9 | selectively attenuated | ~5 | no significant impact | ~5 |  |  |  |  |
| N – KRIVKRIKKWLR – C [KR12B, dodecameric mutant peptide derived from FK13 / LL37] | no role in Sp1 occupancy |  |  |  |  |  |  | selectively attenuated |  | inverse regulation | ~5 | did not significantly induce thermal stability |  |  |  |
| N – KRIVQRIKKWLR – C [KR12A, dodecameric mutant peptide derived from FK13 / LL37] | slightly enriched | abrogated | ~2 | attenuated | downregulated c-MYC transcription in a dose-dependent manner |  |  |  |  |  |  |  | ~30 | ~30 | ~2.5 |
